Data from US9273095B2, “Antibiotic peptide and preparation method therefor and application therefor” (priority 2011, dated 2016).
Read-outs that look alike come from different tables or passages of the source. Non-standard residues stand in square brackets, D forms with d. No end group written: not given here.

Tests used:
candida krusei = test: microbe, parasite or virus in culture; format: cell-based
Text: • (1) Test strains: monilia albicans (candida albicans), candida glabrata, candida krusei, candida tropicalis, aspergillus fumigatus and flavous. (2) Quality control strains: candida krusei JLC30366 (ATCC6258). Antimicrobial peptides PL-13 (SEQ ID NO: 1) under test are supplied by Jiangsu ProteLight Pharmaceutical & Biotechnology Co., LTD. […] (1) The bacterial strains which preserved on PDA slant are respectively inoculated onto PDA plate and slant medium. Activation of bacterial strains is conducted at a humidity level of 60% and 25° C. (for aspergillus) or 37° C. (for candida). (2) 0.9% stroke-physiological saline solution comprising 0.5% Tween-80 is used to prepare bacterial suspension for experiment. Hemocytometer is utilized to adjust concentration of the bacterial suspension to 1-3×10^6 CFU/ml (0.5 McFarland units) to make stock solution in reserve at -20° C. During the sensitivity test, the RPMI-1640 liquid medium is diluted 1000 times to 1-3×10^3 CFU/ml. (3) The RPMI-1640 liquid is utilized as diluent to 10-fold dilute stock solution of peptides. […] The eleventh orifice is used as living control orifice, while the twelfth one as blank control. (4) The RPMI-1640 liquid is utilized as diluent to 10-fold dilute stock solution of FCZ and ICZ. […] Ditto for other operations.

aspergillus flavous = test: microbe, parasite or virus in culture; format: cell-based
Description: (§1) • (1) Test strains: monilia albicans (candida albicans), candida glabrata, candida krusei, candida tropicalis, aspergillus fumigatus and flavous. Antimicrobial peptides PL-13 (SEQ ID NO: 1) under test are supplied by Jiangsu ProteLight Pharmaceutical & Biotechnology Co., LTD. […] Activation of bacterial strains is conducted at a humidity level of 60% and 25° C. (for aspergillus) or 37° C. (for candida). (2) 0.9% stroke-physiological saline solution comprising 0.5% Tween-80 is used to prepare bacterial suspension for experiment. Hemocytometer is utilized to adjust concentration of the bacterial suspension to 1-3×10^6 CFU/ml (0.5 McFarland units) to make stock solution in reserve at -20° C. During the sensitivity test, the RPMI-1640 liquid medium is diluted 1000 times to 1-3×10^3 CFU/ml. (3) The RPMI-1640 liquid is utilized as diluent to 10-fold dilute stock solution of peptides. […] The eleventh orifice is used as living control orifice, while the twelfth one as blank control. (4) The RPMI-1640 liquid is utilized as diluent to 10-fold dilute stock solution of FCZ and ICZ. […] Ditto for other operations.

aspergillus fumigatus = test: microbe, parasite or virus in culture; format: cell-based
Description: as §1

[1] = system: red cell suspension from healthy volunteers; test: Hemolytic activity test; format: cell-based, human; conditions: for Hemolytic activity, absorbancy (OD value) at 570 nm: 4 hours at 37° C., OD higher than 0.1 is hemolytic, n = 3
Description: (1) Samples are serial diluted with sterile PBS to 1000, 500, 250, 125, 64, 32, 16, 8, 4 μg/ml in turn and spread in 96-well plates, 100 μl per orifice.
(2) We use distilled water as positive control, sterile PBS as negative control and blank orifice with 200 μl PBS solution added. Each concentration above is made in triplicate.
(3) We take 3 ml whole blood from healthy volunteers and washed it with sterile PBS three times to prepare fresh 2% concentration red cell suspension. Then we added 100 μl red cell suspension into each orifice and made them cultured for 4 hours at 37° C. in the incubator. After centrifuged by plate-swashing centrifuge, the supernatant liquid is collected and measured absorbancy (OD value) at a wavelength of 570 nm. Then we compared the hemolytic efficiency of these concentrations.
(4) According to the documents standard, OD value which is higher than 0.1 is hemolytic concentration.

Staphylococcus aureus = test: microbe, parasite or virus in culture; format: cell-based
Description: (§2) The experimental strains are 37 standard strains preserved in lab and clinical isolated bacteria, including drug-resistant bacteria and quality-control bacteria selecting Staphylococcus aureus ATCC29213, Enterococcus faecalis ATCC29212, Escherichia coli ATCC25922, Pseudomonas aeruginosa ATCC27853 and klebsiella pneumoniae ATCC700603.
(§3) (1) Sensitivity test is conducted with two-fold agar dilution method and Denlay multipoint inoculator. Test bacteria are cultured with nutrient broth and brain heart infusion.
(§4) (2) The drug is double diluted into different concentration with MH broth after dissolved and then placed in the plate respectively.
(§5) (3) After dissolved, MH agar culture medium are injected into the plate with drug quantitatively and mixed to make the final concentration of drug are 0.03, 0.06, 0.125, . . . , 128 μg/ml respectively.
(§6) (4) After solidification of the culture medium in the plate, test bacteria (10^4CFU/point) are inoculated by multipoint inoculator and cultured for 18 hours at constant 35° C. Then observe the results.

[2] = system: Acinetobacter calcoaceticus; test: microbe, parasite or virus in culture; format: cell-based
Description: as §2, §3, §4, §5, §6

Enterobacter aerogenes = test: microbe, parasite or virus in culture; format: cell-based
Description: as §2, §3, §4, §5, §6

Typhoid bacillus H901 = test: microbe, parasite or virus in culture; format: cell-based
Description: as §2, §3, §4, §5, §6

Salmonella typhimurium = test: microbe, parasite or virus in culture; format: cell-based; conditions: murium
Description: as §2, §3, §4, §5, §6

Enterobacter cloacae = test: microbe, parasite or virus in culture; format: cell-based
Description: as §2, §3, §4, §5, §6

Escherichia coli = test: microbe, parasite or virus in culture; format: cell-based; conditions: 08-5 (ESBLs) Extended Spectyumβ-lactamase
Description: as §2, §3, §4, §5, §6

Serratia marcescens = test: microbe, parasite or virus in culture; format: cell-based
Description: as §2, §3, §4, §5, §6

Shigella flexneri = test: microbe, parasite or virus in culture; format: cell-based
Description: as §2, §3, §4, §5, §6

Shigella = test: microbe, parasite or virus in culture; format: cell-based
Description: as §2, §3, §4, §5, §6

Shigella sonnei = test: microbe, parasite or virus in culture; format: cell-based; conditions: Shigella sonnei strains 51592
Description: as §2, §3, §4, §5, §6

Feilaoti citrobacter = test: microbe, parasite or virus in culture; format: cell-based
Description: as §2, §3, §4, §5, §6

[3] = system: Staphylococcus epidermidis; test: microbe, parasite or virus in culture; format: cell-based
Description: as §2, §3, §4, §5, §6

Proteus vulgaris = test: microbe, parasite or virus in culture; format: cell-based
Description: as §2, §3, §4, §5, §6

PL-51 (SEQ ID NO: 30) = test: RP-HPLC temperature profiling 5-80 C, normalised to random coil peptide C; self-association of the peptide with itself
PL-43 (SEQ ID NO: 24) = test: as above
PL-34 (SEQ ID NO: 6) = test: as above
PL-40 (SEQ ID NO: 18) = test: as above
PL-18 (SEQ ID NO: 1) = test: as above

In the case of Ac-FKKLKKLFSKLLNLK-NH2 [PL-26], the Minimal inhibitory concentration (candida krusei) is reported as 8 µg/mL, the Minimal inhibitory concentration (aspergillus flavous) is reported as >64 µg/mL and the Minimal inhibitory concentration (aspergillus fumigatus) is reported as 32 µg/mL. The “Hemolytic activity, absorbancy (OD value) at 570 nm” value (shortened to “Hemolytic activity, absorbancy”) ([1]; peptide 7.8125 μg/ml) was 0.020, the “Hemolytic activity, absorbancy” value ([1]; peptide 15.625 μg/ml) was 0.047 and the “Hemolytic activity, absorbancy” value ([1]; peptide 31.25 μg/ml) was 0.057. For the same molecule, the “Hemolytic activity, absorbancy” value ([1]; peptide 62.5 μg/ml) was 0.068, the “Hemolytic activity, absorbancy” value ([1]; peptide 125 μg/ml) was 0.075 and the “Hemolytic activity, absorbancy” value ([1]; peptide 250 μg/ml) was 0.089. For the same molecule, the “Hemolytic activity, absorbancy” value ([1]; peptide 500 μg/ml) was 0.121, the “Hemolytic activity, absorbancy” value ([1]; peptide 1000 μg/ml) was 0.327 and the “hemolytic toxicity (in words)” value ([1]; summary of Table 9) was “little hemolytic toxicity”. It also gave an MIC (Staphylococcus aureus; 08-49(MSSA) Meticillin susceptible staphylococcus aureus) of 1.3 µM, an MIC (Staphylococcus aureus; 08-52(MRSA) Methicillin-resistant staphylococcus aureus) of 1.3 µM and an MIC (Staphylococcus aureus; Staphylococcus aureus ATCC25923) of 1.3 µM. For the same molecule, the MIC (Staphylococcus aureus; Staphylococcus aureus ATCC29213) was 1.3 µM, the MIC (Staphylococcus aureus; strain 15 (listed under Staphylococcus aureus)) was 1.3 µM and the MIC [2] was 6.7 µM. For the same molecule, the MIC (Enterobacter aerogenes) was 1.3 µM, the MIC (Typhoid bacillus H901) was 2.7 µM and the MIC (Salmonella typhimurium) was 5.3 µM. For the same molecule, the MIC (Enterobacter cloacae) was 1.7 µM, the MIC (Escherichia coli) was 1.3 µM and the MIC (Serratia marcescens) was 0.02 µM. It also gave an MIC (Shigella flexneri) of 1.3 µM, an MIC (Shigella) of 0.3 µM and an MIC (Shigella sonnei) of 1.3 µM. It also gave an MIC (Feilaoti citrobacter) of 2.7 µM, an MIC [3] of 0.7 µM and an MIC ([3]; 08-17 (MSSE) Meticillin susceptible staphylococcus epidermidis) of 2.7 µM. For the same molecule, the MIC ([3]; 08-18 (MRSE) Methicillin-resistant staphylococcus epidermidis) was 2.7 µM and the MIC (Proteus vulgaris) was 6.7 µM.

Work on [dL][dF][dK][dK][dL][dK][dK][dL][dF][dS][dK][dL][dW][dN][dW][dK] [PL-51 (SEQ ID NO: 30)] yielded a PA (self-association parameter) (PL-51 (SEQ ID NO: 30)) of 1.63 min.

[dF][dK][dK][dF][dK][dK][dL][dL][dS][dK][dL][dW][dN][dW][dK] [PL-43 (SEQ ID NO: 24)] gave a PA (self-association parameter) (PL-43 (SEQ ID NO: 24)) of 1.65 min.

[dF][dK][dK][dL][dK][dK][dK][dF][dS][dK][dL][dW][dN][dW][dK] [PL-34 (SEQ ID NO: 6)] showed a PA (self-association parameter) (PL-34 (SEQ ID NO: 6)) of 0.81 min.

Molecule [dK][dL][dK][dK][dL][dF][dS][dK][dL][dW][dN][dW][dK] [PL-40 (SEQ ID NO: 18)] has a PA (self-association parameter) (PL-40 (SEQ ID NO: 18)) of 0.55 min.

B1: PL-18 (SEQ ID NO: 1) (peptide)
peptide: Ac-[dF][dK][dK][dL][dK][dK][dL][dF][dS][dK][dL][dW][dN][dW][dK]-NH2
SMILES: CC(=O)N[C@H](Cc1ccccc1)C(=O)N[C@H](CCCCN)C(=O)N[C@H](CCCCN)C(=O)N[C@H](CC(C)C)C(=O)N[C@H](CCCCN)C(=O)N[C@H](CCCCN)C(=O)N[C@H](CC(C)C)C(=O)N[C@H](Cc1ccccc1)C(=O)N[C@H](CO)C(=O)N[C@H](CCCCN)C(=O)N[C@H](CC(C)C)C(=O)N[C@H](Cc1c[nH]c2ccccc12)C(=O)N[C@H](CC(N)=O)C(=O)N[C@H](Cc1c[nH]c2ccccc12)C(=O)N[C@H](CCCCN)C(N)=O
Molecule B1 has a PA (self-association parameter) (PL-18 (SEQ ID NO: 1)) of 0.56 min.
